Assay results from patent US20040248928A1, “Pharmaceutical composition comprising an adenosine A1/A2 agonist and a sodium hydrogen exchanger inhibitor” (Adventis Pharmaceuticals Inc., priority 2001, published 2004).
Marks after values point to notes of the source that are not given here.

How the values were obtained:
open-chest rabbit hearts [1] = test: Infarct size, 45 min ischemia model (open-chest rabbit, TTC staining); assay type: in vivo, New Zealand White rabbits; conditions: 45 min ischemia + 3 h reperfusion; for Infarct size: (E)=5 min prior to ischemia, (L)=at reperfusion, (E&L)=from 5 min prior to ischemia for 120 min, mean ± S.E.M.; for Infarct size as a percentage of the risk zone: control 55.8±3.9%
Procedure: (§1) New Zealand White rabbits of either sex weighing 2.0-2.5 kg were anesthetized with pentobarbital (30 mg/kg iv), intubated through a tracheotomy, and ventilated with 100% oxygen via a positive pressure respirator (MD industries, Mobile, Ala.). The ventilation rate and tidal volume were adjusted to maintain arterial blood gases in the physiological range. Body temperature was maintained at 38-39° C. A catheter was inserted into the left carotid artery for monitoring blood pressure. Another catheter was inserted into the right jugular vein for drug infusion. A left thoracotomy was performed in the fourth intercostal space, and the pericardium was opened to expose the heart. A 2-0 silk suture on a curved taper needle was passed through the myocardium around a prominent branch of the left coronary artery. The ends of the suture were passed through a small piece of soft vinyl tubing to form a snare. Ischemia was induced by pulling the snare and then fixing it by clamping the tube with a small hemostat. Ischemia was confirmed by appearance of cyanosis. Reperfusion was achieved by releasing the snare and was confirmed by visible hyperemia on the ventricular surface. After 3 h of reperfusion, the rabbit was given an overdose of pentobarbital and the heart was quickly removed from the chest, mounted on a Langendorff apparatus, and perfused with saline to wash out blood. Then the coronary artery was reoccluded, and 1 ml of 0.25% fluorescent polymer microspheres (2-9 μm diameter, Duke Scientific Corp, Palo Alto, Calif.) were infused into the perfusate to demarcate the risk zone as the area of tissue without fluorescence. The heart was weighed, frozen, and cut into 2.5-mm-thick slices. The slices were incubated in 1% triphenyltetrazolium chloride (TTC) in sodium phosphate buffer at 37° C. for 20 min. The slices were immersed in 10% formalin to enhance the contrast between stained (viable) and unstained (necrotic) tissue and then squeezed between glass plates spaced exactly 2 mm apart. The myocardium at risk was identified by illuminating the slices with ultraviolet light. The infarcted and risk zone areas were traced on a clear acetate sheet and quantified with planimetry by an investigator blinded to the treatment. The areas were converted into volumes by multiplying the areas by slice thickness. Infarct size is expressed as a percentage of the risk zone. Seven groups of rabbits were subjected to 45 min of regional ischemia followed by 3 h of reperfusion (FIG. 1). The PC was induced by a 5 min of regional ischemia followed by a 10 min reperfusion prior to the sustained ischemia. All groups receiving AMP 579 received a bolus injection of 30 μg/kg iv followed by an infusion of 3 μg/kg/min for 70 min. In PC+AMP (L) group, the hearts experienced PC and were treated with AMP 579 at reperfusion for 70 min. AMP 579 alone was given at reperfusion for 70 min in AMP (L) group. The hearts in AMP (E&L) group were treated with AMP 579 starting 5 min before ischemia for 120 min. An intravenous bolus injection of cariporide was given either 5 min prior to ischemia (Cariporide (E)) or 5 min before reperfusion (Cariporide (L)). All data are expressed as means±S.E.M. One-way ANOVA combined with Scheffé's post hoc test was used to test for differences in baseline hemodynamics and infarct size among groups. ANOVA with replication was used to test for changes in hemodynamics during an experiment within each group. A p value of less than 0.05 was considered to be significant.

open-chest rabbit hearts [2] = test: Infarct size, 60 min ischemia model (open-chest rabbit, TTC staining); assay type: in vivo, New Zealand White rabbits; conditions: 60 min ischemia + 3 h reperfusion; for Infarct size: (E)=5 min prior to ischemia, (L)=at reperfusion, AMP given at reperfusion, mean ± S.E.M.
Procedure: as §1, with “Pretreatment with cariporide was so potent that any additional protection would probably be undetectable with a 45-minute ischemic insult. We therefore chose a 60 min period” for “Seven groups”, “index” for “rabbits were subjected to 45 min of regional ischemia followed by 3 h of reperfusion (FIG. 1). The PC was induced by a 5 min of regional ischemia followed by a 10 min reperfusion prior to the sustained ischemia. All groups receiving AMP 579 received a bolus injection of 30 μg/kg iv followed by an infusion of 3 μg/kg/min for 70 min. In PC+AMP (L) group, the hearts experienced PC and were treated with AMP 579 at reperfusion for 70 min. AMP 579 alone was given at reperfusion for 70 min in AMP (L) group. The hearts in AMP (E&L) group were treated with AMP 579 starting 5 min before”, “these studies. […]” for “120 min. An intravenous bolus injection of cariporide was given either 5 min prior to ischemia (Cariporide (E)) or 5 min before reperfusion (Cariporide (L)).”, “ANOVA with replication was used to test for changes in hemodynamics during an experiment within each group. A p value of less than 0.05 was considered to be significant.” left out

| SMILES | Infarct size (open-chest rabbit hearts [1]; listed as AMP (E&L)) | Infarct size (open-chest rabbit hearts [1]; listed as AMP (L)) | Infarct size as a percentage of the risk zone (open-chest rabbit hearts [1]; AMP 579 alone, 30 μg/kg iv bolus + 3 μg/kg/min for 70 min starting at reperfusion) | Infarct size (open-chest rabbit hearts [2]) | Infarct size as a percentage of the risk zone (open-chest rabbit hearts [2]; AMP 579 alone at reperfusion (30 μg/kg + 3 μg/kg/min, 70 min), not significant vs control 66.0±4.9%) | Infarct size (open-chest rabbit hearts [1]; listed as Cariporide (E)) | Infarct size (open-chest rabbit hearts [1]; listed as Cariporide (L)) | Infarct size as a percentage of the risk zone (open-chest rabbit hearts [1]; cariporide iv bolus 5 min prior to ischemia (pretreatment)) | Infarct size as a percentage of the risk zone (open-chest rabbit hearts [1]; cariporide iv bolus just prior to reperfusion) | Infarct size as a percentage of the risk zone (open-chest rabbit hearts [2]; cariporide 0.5 mg/kg bolus 5 min prior to ischemia, control 66.0±4.9%) |
| --- | --- | --- | --- | --- | --- | --- | --- | --- | --- | --- |
| CCNC(=O)[C@H]1CC(n2cnc3c(N[C@H](CC)Cc4sccc4Cl)ccnc32)[C@H](O)[C@@H]1O (relative stereo) [AMP 579, [1S-[1α,2β,3β,4α(S*)]]-4-[7-[[3-chloro-2-thienyl)methyl]propyl]amino]-3H-imidazo[4,5-b]pyridin-3-yl]-N-ethyl-2,3-dihydroxycyclopentanecarboxamide] | 0.26 ± 0.05* cm^3 | 0.37 ± 0.03* cm^3 | 32.1±1.8% | 0.59 ± 0.09 cm^3 | 45.3±5.4% |  |  |  |  |  |
| CC(C)c1ccc(C(=O)N=C(N)N)cc1S(C)(=O)=O [Cariporide, 4-isopropyl-3-methylsulfonylbenzoylguanidine methane sulfonate] |  |  |  | 0.47 ± 0.08* cm^3 |  | 0.13 ± 0.07* cm^3 | 0.60 ± 0.08 cm^3 | 8.5±3.7% | 53.4±3.5% | 41.5±7.7% |
